Measurements from ChEMBL document CHEMBL5154928, “Structure-Aided Design, Synthesis, and Biological Evaluation of Potent and Selective Non-Nucleoside Inhibitors Targeting Protein Arginine Methyltransferase 5” (J Med Chem, 2022).
pIC50: −log10 of the molar value.

Assays:
A-375 [1] = experiment: Induction of apoptosis in human A-375 cells assessed as total apoptotic cells at 4 uM incubated for 48 hrs by Annexin-V FITC/PI staining based flow cytometry analysis relative to control; format: functional
[2] = biological target: Protein arginine N-methyltransferase 1 (Homo sapiens, UniProt Q99873); experiment: Inhibition of PRMT1 (unknown origin) using histone H4 (1 to 21 residues) peptide as substrate incubated for 210 mins in presence of SAM by AlphaLISA assay
[3] = Clearance in Sprague-Dawley rat at 3 mg/kg, iv measured for 0.25 to 24 hrs by LC-MS/MS analysis; format: ADME, organism-based; settings: in vivo, time 0.25-24 hrs
[4] = biological target: Histone-lysine N-methyltransferase EZH2 (Homo sapiens, UniProt Q15910); experiment: Inhibition of EZH2 (unknown origin) using peptide substrate preincubated for 10 mins followed by substrate addition for 4 hrs by HTRF assay
A-375 [5] = experiment: Antitumor activity against human A-375 cells xenografted in BALB/c mouse assessed as tumor growth inhibition at 75 mg/kg, po qd for 19 days and measured every 3 days; format: functional; settings: A-375, 456 h, time 19 day, read-out: TGI
[6] = biological target: Protein arginine N-methyltransferase 5 (Homo sapiens, UniProt O14744); experiment: Displacement of [3H]-SAM from PRMT5 (unknown origin) using peptide substrate preincubated for 15 mins followed by substrate addition for 60 mins by radioactive biochemical assay
[7] = biological target: T1, Histone-arginine methyltransferase CARM1 (Homo sapiens, UniProt Q86X55); experiment: Inhibition of PRMT4 (unknown origin) using histone H4 (1 to 21 residues) peptide/SAM as substrate incubated for 210 mins in presence of SAM by AlphaLISA assay
T1 sequence (Q86X55 whole entry): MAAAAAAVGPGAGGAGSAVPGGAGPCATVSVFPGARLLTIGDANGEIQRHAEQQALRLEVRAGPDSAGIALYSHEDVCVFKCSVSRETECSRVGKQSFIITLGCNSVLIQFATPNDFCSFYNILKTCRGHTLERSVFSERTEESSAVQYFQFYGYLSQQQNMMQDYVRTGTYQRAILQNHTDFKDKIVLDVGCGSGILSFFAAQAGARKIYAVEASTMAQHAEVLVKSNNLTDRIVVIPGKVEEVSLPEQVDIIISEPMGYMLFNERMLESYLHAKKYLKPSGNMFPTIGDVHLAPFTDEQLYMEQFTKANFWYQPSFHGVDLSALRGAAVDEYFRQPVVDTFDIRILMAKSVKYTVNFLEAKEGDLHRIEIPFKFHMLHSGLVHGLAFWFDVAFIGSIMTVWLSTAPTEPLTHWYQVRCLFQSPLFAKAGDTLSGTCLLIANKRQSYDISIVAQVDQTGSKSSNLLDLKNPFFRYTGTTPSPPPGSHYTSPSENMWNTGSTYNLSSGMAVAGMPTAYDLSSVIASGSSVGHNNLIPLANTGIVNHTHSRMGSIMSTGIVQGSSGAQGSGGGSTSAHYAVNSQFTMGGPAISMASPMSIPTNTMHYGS

[8] = Metabolic stability in rat liver microsomes assessed as half life measured up to 60 mins in presence of NADPH by LC-MS/MS analysis; format: ADME, Microsome

Histone-lysine N-methyltransferase EZH2, sequence (Q15910 whole entry): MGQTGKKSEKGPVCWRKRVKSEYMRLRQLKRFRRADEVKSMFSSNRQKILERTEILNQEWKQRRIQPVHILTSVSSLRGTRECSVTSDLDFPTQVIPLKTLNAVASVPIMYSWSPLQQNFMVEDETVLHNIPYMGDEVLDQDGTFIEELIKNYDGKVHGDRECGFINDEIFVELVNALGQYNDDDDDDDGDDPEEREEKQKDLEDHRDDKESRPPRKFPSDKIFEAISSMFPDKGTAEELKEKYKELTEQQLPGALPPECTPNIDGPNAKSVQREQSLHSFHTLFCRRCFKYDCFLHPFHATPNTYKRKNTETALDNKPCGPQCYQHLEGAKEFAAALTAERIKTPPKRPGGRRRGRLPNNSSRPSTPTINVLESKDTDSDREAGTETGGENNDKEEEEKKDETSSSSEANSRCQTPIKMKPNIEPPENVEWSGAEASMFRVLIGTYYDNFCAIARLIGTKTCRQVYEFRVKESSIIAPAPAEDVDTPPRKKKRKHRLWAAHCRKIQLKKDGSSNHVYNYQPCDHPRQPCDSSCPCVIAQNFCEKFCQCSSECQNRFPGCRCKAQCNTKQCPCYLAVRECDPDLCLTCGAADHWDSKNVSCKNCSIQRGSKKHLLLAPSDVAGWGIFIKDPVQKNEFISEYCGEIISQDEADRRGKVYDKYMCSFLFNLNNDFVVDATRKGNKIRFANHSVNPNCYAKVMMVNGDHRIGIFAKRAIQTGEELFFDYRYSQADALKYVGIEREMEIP
Protein arginine N-methyltransferase 5, sequence (O14744 whole entry, the tested form may be a part): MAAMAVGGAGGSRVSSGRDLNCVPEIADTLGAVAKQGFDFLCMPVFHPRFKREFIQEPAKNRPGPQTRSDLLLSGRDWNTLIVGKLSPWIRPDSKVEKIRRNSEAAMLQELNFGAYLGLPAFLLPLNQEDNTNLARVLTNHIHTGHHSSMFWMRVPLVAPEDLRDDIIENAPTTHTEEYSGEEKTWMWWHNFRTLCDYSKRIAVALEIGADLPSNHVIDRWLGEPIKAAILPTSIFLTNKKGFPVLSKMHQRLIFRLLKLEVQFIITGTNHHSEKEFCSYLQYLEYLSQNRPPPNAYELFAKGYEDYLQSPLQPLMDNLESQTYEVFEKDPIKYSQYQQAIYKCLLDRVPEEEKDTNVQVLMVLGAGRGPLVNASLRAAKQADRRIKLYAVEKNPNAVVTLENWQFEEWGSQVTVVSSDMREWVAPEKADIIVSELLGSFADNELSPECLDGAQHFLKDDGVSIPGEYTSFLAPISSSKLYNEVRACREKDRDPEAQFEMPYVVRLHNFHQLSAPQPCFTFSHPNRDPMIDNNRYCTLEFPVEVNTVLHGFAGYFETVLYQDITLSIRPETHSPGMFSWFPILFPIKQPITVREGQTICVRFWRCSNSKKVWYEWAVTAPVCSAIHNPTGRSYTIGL
Protein arginine N-methyltransferase 1, sequence (Q99873 whole entry, the tested form may be a part): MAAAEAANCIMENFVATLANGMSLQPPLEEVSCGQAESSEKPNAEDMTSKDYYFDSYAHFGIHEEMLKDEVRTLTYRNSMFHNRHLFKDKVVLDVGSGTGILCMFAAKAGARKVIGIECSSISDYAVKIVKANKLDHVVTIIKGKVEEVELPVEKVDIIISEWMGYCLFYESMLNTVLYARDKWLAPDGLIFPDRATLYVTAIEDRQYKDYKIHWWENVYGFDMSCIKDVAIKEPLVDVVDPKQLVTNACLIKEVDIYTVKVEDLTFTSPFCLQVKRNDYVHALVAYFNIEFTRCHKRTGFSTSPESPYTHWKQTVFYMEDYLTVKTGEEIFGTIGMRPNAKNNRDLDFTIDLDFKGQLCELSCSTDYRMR

## C[C@H](Oc1ccc(-c2cc3c(C4=CCNCC4)ncnc3[nH]2)cc1)c1ccccc1
A-375 [1]
  Activity: 95.9%
[2]
  pIC50: 5.49
[3]
  clearance: 310 mL/min/kg
[4]
  pIC50: < 4.70
A-375 [5]
  inhibition in vivo at 75 mg/kg: 73%
[6]
  pIC50: 7.62
[7]
  pIC50: < 4.70
[8]
  half-life: 9.25 min
